According to PMC6434189, “Peperomin E and its orally bioavailable analog induce oxidative stress-mediated apoptosis of acute myeloid leukemia progenitor cells by targeting thioredoxin reductase” (Redox Biology, 2019):

What was measured:
primary CD34+ AML cells = experiment: CCK-8 cell viability assay on primary CD34+ AML cells; type: cell-based, human; settings: for viability at 6 µM: Homo sapiens, 48 h, CCK-8, read-out: cells viable (average)
Description: The mononuclear cells were further enriched for CD34 positive cells using the MACS CD34 MicroBead kit following the manufacturer's protocol. Enriched CD34 cell-purity was measured by flow cytometry-based quantification of cells stained using an anti-CD34-FITC antigen. Isolated CD34^+ cells were pre-incubated in the IMDM-based serum-free media for 1 h before the addition of drugs. PepE was dissolved in DMSO to make a 100 mM stock solution and stored in aliquots at – 20 °C. The 100 mM stock solution was diluted with DMSO to 10 mM and then diluted with PBS to 1 mM before treating the cells at the indicated concentrations. DMAPE and Ara-C were diluted in PBS to 1 mM concentration before use.
(§1) Unless otherwise mentioned, 2 × 10^4 cells were seeded at 96-well plates (Corning, New York, USA) in the IMDM-based serum-free media for 1 h. Then, the cells were incubated with different concentrations of PepE and DMAPE at 37 °C in a 5% CO2 incubator for 48 h. At the end of the treatment, 10 μL CCK-8 solution was added to each well and incubated for an additional 2 h at 37 °C, and the absorbance at 450 nm was measured with a microplate reader (Thermo Scientific, Multiskan GO, Finland). Inhibition ratio (%) was calculated as [(absorbance of control − absorbance of the test sample)/absorbance of control] x 100%.

KG-1a CD34+ cells = experiment: Intracellular ROS measurement (DCFH-DA / DHE); type: cell-based, human; settings: 6 μM; blocked by NAC pretreatment
Description: KG-1a CD34^+ cells and other sorted primary APCs (5 × 10^5) were plated in FBS-free IMDM medium in 12-well plates (Corning) and were treated with 5 μM of Ara-C and 6 μM PepE or DMAPE in the presence or absence of 5 mM NAC for 2 h. The ROS indicator DCFH-DA (10 μM) or DHE (10 μM) in fresh FBS-free medium was added to each well, and further incubated in the dark for 30 min at 37 °C. The cells were visualized and photographed under an Olympus inverted fluorescence microscope IX-73 (Tokyo, Japan) with Metamorph software (Molecular Devices, Downingtown, PA, USA).

[1] = tested on: TrxR1 KD cells (KG-1a CD34+); experiment: CCK-8 viability in TrxR1 knockdown KG-1a CD34+ cells; type: cell-based, human; settings: 48 h
Description: as §1
For TrxR1 knockdown experiment, KG-1a CD34^+ cells were seeded in a six-well plate at 2.5 × 10^5/well in antibiotic-free IMDM medium for 24 h; then cells were washed once with 2 ml of shRNA transfection medium (Santa Cruz Biotech, sc-108062) and transfected with either TrxR1 shRNA plasmid (Santa Cruz Biotech, sc-36750-SH) or Control shRNA plasmid (negative control, Santa Cruz Biotech, sc-108060) according to the manufacturer's instructions. Briefly, for each transfection, 0.1 ml of shRNA (TrxR1 or control) duplex solution (containing 1 μg of shRNA plasmids) and 0.1 ml of transfection reagent (Santa Cruz Biotech, sc-108061) were gently mixed and incubated at room temperature for 30 min. […] The knockdown efficiencies were evaluated by western blot and RT-qPCR analyses.

[2] = target: T1, TrxR1 in KG-1a CD34+ cells (Homo sapiens, UniProt Q16881); experiment: Imaging TrxR1 activity in cells with TR-green; type: cell-based; settings: 2 and 6 μM, dose-dependent
T1 construct: image TrxR activity in intact isolated KG-1a CD34^+ cells; endogenous in cells; host or cells: KG-1a CD34+ cells
T1 sequence (Q16881 1-499 isoform Q16881-5): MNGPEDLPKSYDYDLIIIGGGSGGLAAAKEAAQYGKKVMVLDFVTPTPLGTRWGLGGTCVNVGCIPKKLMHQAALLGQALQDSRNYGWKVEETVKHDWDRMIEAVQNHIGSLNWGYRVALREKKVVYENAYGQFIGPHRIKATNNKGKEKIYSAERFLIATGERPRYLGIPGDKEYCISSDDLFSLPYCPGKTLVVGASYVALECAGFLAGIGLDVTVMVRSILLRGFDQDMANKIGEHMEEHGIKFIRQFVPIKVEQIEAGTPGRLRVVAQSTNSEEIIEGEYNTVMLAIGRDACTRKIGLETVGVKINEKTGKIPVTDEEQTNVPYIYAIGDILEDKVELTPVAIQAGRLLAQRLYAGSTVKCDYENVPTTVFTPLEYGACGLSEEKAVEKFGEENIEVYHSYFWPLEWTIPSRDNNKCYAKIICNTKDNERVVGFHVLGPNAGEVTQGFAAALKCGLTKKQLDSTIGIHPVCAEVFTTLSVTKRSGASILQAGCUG
Description: The specific fluorescence probe of TrxR – TR-green was employed to image TrxR activity in intact isolated KG-1a CD34^+ cells using previously published methods. Briefly, KG-1a CD34^+ cells (5 × 10^5) were incubated with 2 μM and 6 μM PepE or DMAPE (Previously reported TrxR1 inhibitor Parthenolide was used as the positive control, 0.1% DMSO was used as the negative control) in 6-well plates for 12 h, then 10 μM TR-green was added to each plate and incubated at 37 °C for 3 h. Fluorescence and brightfield images were captured using an inverted fluorescence microscope IX-73 (Olympus) with Metamorph software (Molecular Devices).

[3] = tested on: Trx1 in KG-1a CD34+ cells; experiment: Trx1 redox state assay (PAO-Sepharose pull down); type: cell-based, human; settings: 5 μM, 24 h
Description: The redox state of Trx1 was determined using Liu's method. Phenylarsine oxide (PAO)-Sepharose was prepared by immobilization of PAO on Sepharose 4B according to Liu's report. The reduced form was pulled down on the Sepharose, while the oxidized form remained in the solution. Briefly, the KG-1a CD34^+ cells were treated with 5 μM PepE/DMAPE or vehicle control (DMSO) for 24 h. The cellular proteins were extracted by RIPA buffer and quantified by the Bradford method. The fully oxidized and reduced controls were prepared by incubating the non-treated cell lysate with diamide (2 mM) and TCEP (2 mM) for 1 h at 37 °C, respectively. The cell lysates were then incubated with PAO-sepharose on a rotating shaker for 1 h at room temperature. The supernatant was collected and the PAO-sepharose was washed with Tris-EDTA buffer. Then, the reduced Trx1 was eluted using Tris-EDTA buffer containing DPMS (10 mM). All samples were separated on SDS-PAGE and electrotransferred to PVDF membrane for western blot analyses. The bands were analyzed using Gel-pro 32 software.

TR-green fluorescence intensities (cellular TrxR1 activity) [2] | SMILES | viability at 6 µM (primary CD34+ AML cells) | ROS level by DCFH-DA staining (KG-1a CD34+ cells) | potency toward TrxR1 KD cells compared to CTRL KD cells [1] | oxidized form of Trx [3] | concentration range inducing apoptosis of human primary CD34+ AML cells (primary CD34+ AML cells)
significant decrease | COc1cc(C(c2cc(OC)c3c(c2)OCO3)[C@@H]2COC(=O)[C@H]2CN(C)CCO)cc2c1OCO2 [DMAPE, (2S,3S)-6-Methyl (hydroxyethyl) amino-2,6-dihydropeperomin E] | 28.9% | burst of ROS | elevated potency | significantly increased | 
significant decrease | C=C1C(=O)OC[C@H]1C(c1cc(OC)c2c(c1)OCO2)c1cc(OC)c2c(c1)OCO2 [PepE, Peperomin E] | 24% | burst of ROS | elevated potency | significantly increased | 4 to 6 µM
